Measured values from ChEMBL document CHEMBL5321215, “Discovery of quinazolin-4(3H)-one derivatives as novel AChE inhibitors with anti-inflammatory activities” (Eur J Med Chem, 2023).
Activity calls are given as the source filed them. The rule behind the calls is not given here.

Target: Acetylcholinesterase (Electrophorus electricus) (UniProt O42275)
Experiment: Inhibition of electric eel AChE using acetylthiocholine iodide as substrate at 20 uM incubated for 20 mins by Ellman's method relative to control

Chain of Acetylcholinesterase (Electrophorus electricus) (O42275 24-633 limits assumed): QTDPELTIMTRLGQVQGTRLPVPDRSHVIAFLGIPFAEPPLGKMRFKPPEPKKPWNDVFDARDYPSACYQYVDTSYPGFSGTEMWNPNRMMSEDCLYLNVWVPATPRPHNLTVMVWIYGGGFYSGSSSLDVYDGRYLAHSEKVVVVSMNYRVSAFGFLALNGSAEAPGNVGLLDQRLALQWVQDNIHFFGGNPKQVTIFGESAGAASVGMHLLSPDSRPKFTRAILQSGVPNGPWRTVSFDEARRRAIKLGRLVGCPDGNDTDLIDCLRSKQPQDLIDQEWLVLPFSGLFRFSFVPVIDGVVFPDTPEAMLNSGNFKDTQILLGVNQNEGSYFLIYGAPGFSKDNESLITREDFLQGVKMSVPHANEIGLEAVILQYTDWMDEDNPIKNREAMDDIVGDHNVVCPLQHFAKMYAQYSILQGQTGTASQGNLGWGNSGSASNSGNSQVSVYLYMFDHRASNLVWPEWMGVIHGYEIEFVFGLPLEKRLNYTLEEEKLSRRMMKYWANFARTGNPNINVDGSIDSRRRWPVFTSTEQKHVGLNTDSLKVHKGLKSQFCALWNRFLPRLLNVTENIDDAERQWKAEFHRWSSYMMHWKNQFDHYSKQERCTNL

**Q.** With `CN1CCN(c2ccc(-c3nc4ccccc4c(=O)[nH]3)cc2)CC1` as the molecule, how does the inhibition read?
**A.** The inhibition was 68.1%.

**Q.** How did the inhibition turn out when `COc1cc(-c2nc3ccc(NC(=O)CN4CCCCC4)cc3c(=O)[nH]2)cc(OC)c1OC` was run?
**A.** Its inhibition is 24.6%.

**Q.** With `COc1cc(OC)c2c(=O)[nH]c(C(=O)c3cc(OC)c(OC)c(OC)c3)nc2c1` as the molecule, how does the inhibition read?
**A.** Its inhibition is 23.1%.

**Q.** `O=c1[nH]c(C2CCN(Cc3ccccc3)CC2)nc2ccc([N+](=O)[O-])cc12` was tested. Which inhibition did it give?
**A.** Its inhibition is 59.6%.

**Q.** For `O=c1[nH]c(C2CCN(Cc3ccccc3)CC2)nc2ccc(Br)cc12`, which inhibition is on record?
**A.** The inhibition was 31.7%.

**Q.** With `COc1cc(-c2nc3ccccc3c(=O)[nH]2)cc(OC)c1OC` as the molecule, how does the inhibition read?
**A.** The inhibition was 47.9%.

**Q.** How did the inhibition turn out when `COc1cc(OC)c2c(=O)[nH]c(-c3ccc(O[C@@H]4O[C@H](CO)[C@@H](O)[C@@H](O)[C@H]4O)cc3)nc2c1` was run?
**A.** Its inhibition is 32.8%.

**Q.** For `COc1cc(-c2nc3ccc([N+](=O)[O-])cc3c(=O)[nH]2)cc(OC)c1OC`, which inhibition is on record?
**A.** The inhibition was 2.52%.

**Q.** How did the inhibition turn out when `COc1cc(OC)c2c(=O)[nH]c(-c3cccs3)nc2c1` was run?
**A.** Its inhibition is 44.2%.

**Q.** Which inhibition does the source give for `COc1cc(-c2nc3ccc(NC(=O)c4ccc(Br)cc4)cc3c(=O)[nH]2)cc(OC)c1OC` here?
**A.** The inhibition was 23.5%.

**Q.** `COc1cc(-c2nc3ccc(NC(=O)CCN4CCC(O)CC4)cc3c(=O)[nH]2)cc(OC)c1OC` was tested. Which inhibition did it give?
**A.** The inhibition was 20.2%.

**Q.** `COc1cc(OC)c2c(=O)[nH]c(-c3ccc(N4CCN(CCO)CC4)cc3)nc2c1` was tested. Which inhibition did it give?
**A.** The inhibition was 62.4%.

**Q.** Which inhibition does the source give for `COc1cc(-c2nc3ccc(NC(=O)CCN4CCCCC4)cc3c(=O)[nH]2)cc(OC)c1OC` here?
**A.** Its inhibition is 26.1%.

**Q.** With `COc1cc(OC)c2c(=O)[nH]c(-c3ccc(N4CCN(C(=O)OC(C)(C)C)CC4)cc3)nc2c1` as the molecule, how does the inhibition read?
**A.** Its inhibition is 37.4%.

**Q.** For `CN1CCN(c2ccc(-c3nc4ccc(N)cc4c(=O)[nH]3)cc2)CC1`, which inhibition is on record?
**A.** Its inhibition is 58.6%.

**Q.** For `COc1cc(OC)c2c(=O)[nH]c(-c3ccc(-c4ccncc4)cc3)nc2c1`, which inhibition is on record?
**A.** The inhibition was 30.9%.

**Q.** How did the inhibition turn out when `COc1cc(OC)c2c(=O)[nH]c(C(=O)c3ccc(O)cc3)nc2c1` was run?
**A.** Its inhibition is 7.74%.

**Q.** Which inhibition does the source give for `COc1cc(OC)c2c(=O)[nH]c(-c3ccc(N4CCOCC4)cc3)nc2c1` here?
**A.** The inhibition was 47.3%.

Target: Cholinesterase (Equus caballus) (UniProt P81908)
Sequence (P81908 whole entry): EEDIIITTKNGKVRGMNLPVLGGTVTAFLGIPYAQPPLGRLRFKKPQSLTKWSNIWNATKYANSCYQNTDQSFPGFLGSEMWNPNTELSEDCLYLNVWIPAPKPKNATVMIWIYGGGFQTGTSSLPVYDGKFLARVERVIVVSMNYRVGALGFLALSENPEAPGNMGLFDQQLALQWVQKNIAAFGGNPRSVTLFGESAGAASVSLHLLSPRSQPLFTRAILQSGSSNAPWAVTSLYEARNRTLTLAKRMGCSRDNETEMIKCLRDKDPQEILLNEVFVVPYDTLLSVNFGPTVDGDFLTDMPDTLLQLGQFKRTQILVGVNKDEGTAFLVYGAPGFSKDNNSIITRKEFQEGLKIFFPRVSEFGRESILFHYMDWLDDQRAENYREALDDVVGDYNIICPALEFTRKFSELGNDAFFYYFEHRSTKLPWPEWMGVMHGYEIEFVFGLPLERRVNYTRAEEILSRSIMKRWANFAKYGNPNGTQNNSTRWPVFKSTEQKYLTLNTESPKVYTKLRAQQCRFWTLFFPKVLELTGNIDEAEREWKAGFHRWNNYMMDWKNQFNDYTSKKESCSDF
Experiment: Inhibition of equine serum BChE at 20 uM by Ellman's method relative to control
Format: cell-free

**Q.** How did the inhibition turn out when `CN1CCN(c2ccc(-c3nc4ccccc4c(=O)[nH]3)cc2)CC1` was run?
**A.** Its inhibition is 24.1%.

**Q.** Which inhibition does the source give for `COc1cc(-c2nc3ccc(NC(=O)CN4CCCCC4)cc3c(=O)[nH]2)cc(OC)c1OC` here?
**A.** The inhibition was “inactive”.

**Q.** `COc1cc(OC)c2c(=O)[nH]c(C(=O)c3cc(OC)c(OC)c(OC)c3)nc2c1` was tested. Which inhibition did it give?
**A.** The inhibition was “inactive”.

**Q.** How did the inhibition turn out when `O=c1[nH]c(C2CCN(Cc3ccccc3)CC2)nc2ccc([N+](=O)[O-])cc12` was run?
**A.** The inhibition was “inactive”.

**Q.** For `O=c1[nH]c(C2CCN(Cc3ccccc3)CC2)nc2ccc(Br)cc12`, which inhibition is on record?
**A.** Its inhibition is 14.6%.

**Q.** For `COc1cc(-c2nc3ccccc3c(=O)[nH]2)cc(OC)c1OC`, which inhibition is on record?
**A.** Its inhibition is 32.9%.

**Q.** `COc1cc(OC)c2c(=O)[nH]c(-c3ccc(O[C@@H]4O[C@H](CO)[C@@H](O)[C@@H](O)[C@H]4O)cc3)nc2c1` was tested. Which inhibition did it give?
**A.** Its inhibition is 11.3%.

**Q.** For `COc1cc(-c2nc3ccc([N+](=O)[O-])cc3c(=O)[nH]2)cc(OC)c1OC`, which inhibition is on record?
**A.** The inhibition was “inactive”.

**Q.** Which inhibition does the source give for `COc1cc(OC)c2c(=O)[nH]c(-c3cccs3)nc2c1` here?
**A.** The inhibition was 35.3%.

**Q.** For `COc1cc(-c2nc3ccc(NC(=O)c4ccc(Br)cc4)cc3c(=O)[nH]2)cc(OC)c1OC`, which inhibition is on record?
**A.** The inhibition was 8.3%.

**Q.** With `COc1cc(-c2nc3ccc(NC(=O)CCN4CCC(O)CC4)cc3c(=O)[nH]2)cc(OC)c1OC` as the molecule, how does the inhibition read?
**A.** Its inhibition is 15.8%.

**Q.** How did the inhibition turn out when `COc1cc(OC)c2c(=O)[nH]c(-c3ccc(N4CCN(CCO)CC4)cc3)nc2c1` was run?
**A.** The inhibition was 3.32%.

**Q.** How did the inhibition turn out when `COc1cc(-c2nc3ccc(NC(=O)CCN4CCCCC4)cc3c(=O)[nH]2)cc(OC)c1OC` was run?
**A.** The inhibition was 14.6%.

**Q.** How did the inhibition turn out when `COc1cc(OC)c2c(=O)[nH]c(-c3ccc(N4CCN(C(=O)OC(C)(C)C)CC4)cc3)nc2c1` was run?
**A.** Its inhibition is “inactive”.

**Q.** For `CN1CCN(c2ccc(-c3nc4ccc(N)cc4c(=O)[nH]3)cc2)CC1`, which inhibition is on record?
**A.** Its inhibition is 3.32%.

**Q.** Which inhibition does the source give for `COc1cc(OC)c2c(=O)[nH]c(-c3ccc(-c4ccncc4)cc3)nc2c1` here?
**A.** The inhibition was 1.72%.

**Q.** How did the inhibition turn out when `COc1cc(OC)c2c(=O)[nH]c(C(=O)c3ccc(O)cc3)nc2c1` was run?
**A.** Its inhibition is “inactive”.

**Q.** How did the inhibition turn out when `COc1cc(OC)c2c(=O)[nH]c(-c3ccc(N4CCOCC4)cc3)nc2c1` was run?
**A.** The inhibition was 16.5%.

Target: Acetylcholinesterase (Electrophorus electricus, UniProt O42275)
Sequence (O42275 whole entry): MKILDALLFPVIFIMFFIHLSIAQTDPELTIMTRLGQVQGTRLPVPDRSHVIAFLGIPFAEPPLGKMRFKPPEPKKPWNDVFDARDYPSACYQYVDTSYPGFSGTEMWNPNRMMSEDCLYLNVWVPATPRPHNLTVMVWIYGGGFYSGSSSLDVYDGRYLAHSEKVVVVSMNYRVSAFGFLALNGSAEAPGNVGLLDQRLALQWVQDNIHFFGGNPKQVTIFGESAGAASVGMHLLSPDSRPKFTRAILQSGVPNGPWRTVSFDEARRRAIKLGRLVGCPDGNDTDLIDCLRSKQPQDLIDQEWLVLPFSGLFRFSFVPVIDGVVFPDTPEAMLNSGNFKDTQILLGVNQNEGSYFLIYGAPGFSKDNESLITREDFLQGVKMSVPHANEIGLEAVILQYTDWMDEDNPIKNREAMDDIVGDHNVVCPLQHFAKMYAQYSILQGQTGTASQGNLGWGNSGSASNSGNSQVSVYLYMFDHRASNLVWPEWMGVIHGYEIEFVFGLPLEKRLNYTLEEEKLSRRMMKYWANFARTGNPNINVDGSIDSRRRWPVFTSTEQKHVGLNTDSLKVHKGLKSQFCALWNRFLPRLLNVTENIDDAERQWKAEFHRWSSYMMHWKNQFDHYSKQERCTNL
Experiment: Inhibition of electric eel AChE using acetylthiocholine iodide as substrate incubated for 20 mins by Ellman's method

**Q.** How did the IC50 turn out when `CN1CCN(c2ccc(-c3nc4ccccc4c(=O)[nH]3)cc2)CC1` was run?
**A.** Its IC50 is 30.4 µM.

**Q.** `O=c1[nH]c(C2CCN(Cc3ccccc3)CC2)nc2ccc([N+](=O)[O-])cc12` was tested. Which IC50 did it give?
**A.** The IC50 was 6.86 µM.

Target: Cholinesterase (Equus caballus, UniProt P81908)
Sequence (P81908 whole entry): as the sequence (P81908 whole entry) above
Experiment: Inhibition of equine serum BChE by Ellman's method
Format: cell-free

**Q.** For `CN1CCN(c2ccc(-c3nc4ccccc4c(=O)[nH]3)cc2)CC1`, which IC50 is on record?
**A.** The IC50 was > 20 µM.

**Q.** With `O=c1[nH]c(C2CCN(Cc3ccccc3)CC2)nc2ccc([N+](=O)[O-])cc12` as the molecule, how does the IC50 read?
**A.** Its IC50 is > 20 µM.

System: RAW264.7
Experiment: Antiinflammatory activity against mouse RAW264.7 cells assessed as inhibition of LPS-induced nitric oxide production at 20 uM preincubated for 24 hrs followed by LPS stimulation by Griess reagent-based colorimetric assay relative to control
Format: functional
Design: scale not given: the % may be the effect or the level left

**Q.** How did the Activity turn out when `C[C@@H]1C[C@H]2[C@@H]3CCC4=CC(=O)C=C[C@]4(C)[C@@]3(F)[C@@H](O)C[C@]2(C)[C@@]1(O)C(=O)CO` [DEXAMETHASONE] was run?
**A.** Its Activity is 60.3%.

**Q.** How did the Activity turn out when `CN1CCN(c2ccc(-c3nc4ccccc4c(=O)[nH]3)cc2)CC1` was run?
**A.** Its Activity is 45.6%.

**Q.** With `O=c1[nH]c(C2CCN(Cc3ccccc3)CC2)nc2ccc([N+](=O)[O-])cc12` as the molecule, how does the Activity read?
**A.** The Activity was 40.4%.

System: RAW264.7
Experiment: Antiinflammatory activity against mouse RAW264.7 cells assessed as inhibition of LPS-induced nitric oxide production preincubated for 24 hrs followed by LPS stimulation by Griess reagent-based colorimetric assay
Format: functional, cell-based

**Q.** How did the IC50 turn out when `C[C@@H]1C[C@H]2[C@@H]3CCC4=CC(=O)C=C[C@]4(C)[C@@]3(F)[C@@H](O)C[C@]2(C)[C@@]1(O)C(=O)CO` [DEXAMETHASONE] was run?
**A.** Its IC50 is 11.5 µM.

Target: Acetylcholinesterase (Homo sapiens, UniProt P22303)
Sequence (P22303 whole entry): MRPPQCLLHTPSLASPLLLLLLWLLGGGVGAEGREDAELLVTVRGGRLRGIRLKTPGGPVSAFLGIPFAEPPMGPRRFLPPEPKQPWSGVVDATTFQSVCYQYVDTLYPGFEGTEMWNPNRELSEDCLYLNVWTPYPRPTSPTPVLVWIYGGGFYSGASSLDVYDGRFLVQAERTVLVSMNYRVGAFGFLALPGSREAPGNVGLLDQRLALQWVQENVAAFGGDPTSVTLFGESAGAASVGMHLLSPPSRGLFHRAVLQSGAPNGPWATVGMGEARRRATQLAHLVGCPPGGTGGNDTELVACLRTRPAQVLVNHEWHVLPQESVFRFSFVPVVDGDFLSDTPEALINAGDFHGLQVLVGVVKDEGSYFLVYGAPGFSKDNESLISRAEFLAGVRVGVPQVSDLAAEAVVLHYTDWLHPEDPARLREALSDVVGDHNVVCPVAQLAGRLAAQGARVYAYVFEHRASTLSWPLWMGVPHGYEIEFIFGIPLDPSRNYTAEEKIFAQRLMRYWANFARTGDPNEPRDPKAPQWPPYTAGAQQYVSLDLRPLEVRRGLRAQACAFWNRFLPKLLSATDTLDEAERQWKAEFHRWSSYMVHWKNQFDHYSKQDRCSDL
Experiment: Inhibition of AChE (unknown origin)

**Q.** With `CON(C)C(=O)Oc1ccccc1C(=O)NCCc1c[nH]c2ccccc12` as the molecule, how does the IC50 read?
**A.** The IC50 was 3.24 µM.

Target: Cholinesterase (Homo sapiens, UniProt P06276)
Sequence (P06276 whole entry): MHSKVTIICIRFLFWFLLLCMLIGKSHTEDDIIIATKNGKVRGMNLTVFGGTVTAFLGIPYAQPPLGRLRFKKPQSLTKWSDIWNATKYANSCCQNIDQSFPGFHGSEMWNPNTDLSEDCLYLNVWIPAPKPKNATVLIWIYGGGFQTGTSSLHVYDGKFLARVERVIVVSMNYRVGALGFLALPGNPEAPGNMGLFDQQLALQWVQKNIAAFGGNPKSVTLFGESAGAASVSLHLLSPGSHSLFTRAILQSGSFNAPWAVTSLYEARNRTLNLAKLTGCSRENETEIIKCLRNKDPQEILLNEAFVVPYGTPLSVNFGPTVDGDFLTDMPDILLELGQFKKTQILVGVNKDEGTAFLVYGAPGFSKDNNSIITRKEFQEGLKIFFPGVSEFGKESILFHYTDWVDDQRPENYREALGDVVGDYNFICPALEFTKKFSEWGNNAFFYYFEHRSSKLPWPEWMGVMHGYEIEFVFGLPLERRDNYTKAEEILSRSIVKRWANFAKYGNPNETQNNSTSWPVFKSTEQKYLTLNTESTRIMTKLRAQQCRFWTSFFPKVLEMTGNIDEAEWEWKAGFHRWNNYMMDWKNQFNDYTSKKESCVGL
Experiment: Inhibition of BChE (unknown origin)

**Q.** `CON(C)C(=O)Oc1ccccc1C(=O)NCCc1c[nH]c2ccccc12` was tested. Which IC50 did it give?
**A.** Its IC50 is 1.84 µM.
